The assay has as its target T1, glucocerebrosidase (Gcase) (Homo sapiens, UniProt P04062).
T1 construct: micellar solution containing 10 nM GCase and 100 nM saposin C
T1 sequence (P04062 40-536): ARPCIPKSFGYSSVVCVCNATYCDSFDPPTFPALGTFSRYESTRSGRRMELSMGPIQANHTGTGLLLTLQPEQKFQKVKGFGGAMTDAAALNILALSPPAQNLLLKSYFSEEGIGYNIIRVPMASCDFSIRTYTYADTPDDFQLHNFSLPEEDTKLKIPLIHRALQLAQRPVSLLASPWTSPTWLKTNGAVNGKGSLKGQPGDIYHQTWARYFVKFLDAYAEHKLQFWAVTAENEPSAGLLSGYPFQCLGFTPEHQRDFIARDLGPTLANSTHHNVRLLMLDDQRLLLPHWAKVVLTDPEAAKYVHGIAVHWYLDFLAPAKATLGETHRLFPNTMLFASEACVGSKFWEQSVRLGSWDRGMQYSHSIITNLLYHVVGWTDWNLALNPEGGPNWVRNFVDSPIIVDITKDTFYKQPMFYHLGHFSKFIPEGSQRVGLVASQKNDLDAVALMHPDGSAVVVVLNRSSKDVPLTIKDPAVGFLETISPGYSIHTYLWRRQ
Nature of the assay: Glucocerebrosidase (Gcase) activation assay with 4-methylumbelliferyl-beta-D-glucopyranoside substrate, saposin C and phosphatidylserine/triton micelles, fluorescence readout. It is filed as biochemical. As to conditions: for Percent Gcase Activation, 0.1 μM Test Compound: test compound at 0.1 μM; for Percent Gcase Activation, 1 μM Test Compound: test compound at 1.0 μM. An outline of the steps: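 Readout is endpoint fluorescence (ex 365, em 440 nm) after glycine pH 12.5 stop of a 15-min room-temperature reaction. Enzyme mix: GCase 10 nM plus saposin C 100 nM in 0.37 mol % PS/0.32 mM triton micelles, pH 4.7, compound pre-incubated 30 min; substrate solution 2 mM before 1:1 mixing. Tested at 1.0/0.1 μM, then 3-fold, 8-point series up to 5 μM.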

As to `Cc1cc(-c2cccc(F)n2)nc2c(C(=O)N[C@H](C)C3CC3)cnn12` [III-135], the “Percent Gcase Activation, 0.1 μM Test Compound” value is on record as “** (Gcase activation in the range of 10% up to 20%)” and the “Percent Gcase Activation, 1 μM Test Compound” value is “+++ (Gcase activation greater than 60%)”.

Consider `Cc1cc(-c2ccccc2)nc2c(C(=O)N[C@@H](C)C3CC3)cnn12` [III-136], for which the “Percent Gcase Activation, 0.1 μM Test Compound” value is “*** (greater than 20% Gcase activation)” and the “Percent Gcase Activation, 1 μM Test Compound” value is listed as “+++ (Gcase activation greater than 60%)”.

Regarding `COc1cc(F)cc(-c2cc(C)n3ncc(C(=O)N[C@@H](C)C4CC4)c3n2)c1` [III-137], the “Percent Gcase Activation, 0.1 μM Test Compound” value is “*** (greater than 20% Gcase activation)” and the “Percent Gcase Activation, 1 μM Test Compound” value was “+++ (Gcase activation greater than 60%)”.

As to `COc1c(F)cccc1-c1cc(C)n2ncc(C(=O)N[C@@H](C)C3CC3)c2n1` [III-138], the “Percent Gcase Activation, 0.1 μM Test Compound” value is “** (Gcase activation in the range of 10% up to 20%)” and the “Percent Gcase Activation, 1 μM Test Compound” value is reported as “+++ (Gcase activation greater than 60%)”.

As to `COc1c(F)cccc1-c1cc(C)n2ncc(C(=O)NC(C3CC3)C(F)(F)F)c2n1` (stereo not drawn) [III-139], the “Percent Gcase Activation, 0.1 μM Test Compound” value is listed as “** (Gcase activation in the range of 10% up to 20%)” and the “Percent Gcase Activation, 1 μM Test Compound” value is recorded as “+++ (Gcase activation greater than 60%)”.

For the compound `COc1c(F)cccc1-c1cc(C)n2ncc(C(=O)NC(C)C(F)(F)F)c2n1` (stereo not drawn) [III-140], the “Percent Gcase Activation, 0.1 μM Test Compound” value is on record as “** (Gcase activation in the range of 10% up to 20%)” and the “Percent Gcase Activation, 1 μM Test Compound” value is “+++ (Gcase activation greater than 60%)”.

Consider `COc1c(C#N)cccc1-c1cc(C)n2ncc(C(=O)NC(C3CC3)C(F)(F)F)c2n1` (stereo not drawn) [III-141], for which the “Percent Gcase Activation, 0.1 μM Test Compound” value is “* (less than 10% Gcase activation)” and the “Percent Gcase Activation, 1 μM Test Compound” value is given as “+++ (Gcase activation greater than 60%)”.

On to `COc1c(C#N)cccc1-c1cc(C)n2ncc(C(=O)NC(C)C(F)(F)F)c2n1` (stereo not drawn) [III-142], for which the “Percent Gcase Activation, 0.1 μM Test Compound” value is listed as “* (less than 10% Gcase activation)” and the “Percent Gcase Activation, 1 μM Test Compound” value is given as “+ (less than 30% Gcase activation)”.

For the compound `COc1c(C#N)cccc1-c1cc(C)n2ncc(C(=O)N[C@@H](C)C3CC3)c2n1` [III-143], the “Percent Gcase Activation, 0.1 μM Test Compound” value is “* (less than 10% Gcase activation)” and the “Percent Gcase Activation, 1 μM Test Compound” value is “+ (less than 30% Gcase activation)”.

In the case of `COc1c(C#N)cccc1-c1cc(C)n2ncc(C(=O)N[C@H](C)C3CC3)c2n1` [III-144], the “Percent Gcase Activation, 0.1 μM Test Compound” value is reported as “* (less than 10% Gcase activation)” and the “Percent Gcase Activation, 1 μM Test Compound” value is reported as “+ (less than 30% Gcase activation)”.

As for `COc1cc(-c2cc(C)n3ncc(C(=O)N[C@@H](C)C4CC4)c3n2)ccc1F` [III-145], the “Percent Gcase Activation, 0.1 μM Test Compound” value is “*** (greater than 20% Gcase activation)” and the “Percent Gcase Activation, 1 μM Test Compound” value was “+++ (Gcase activation greater than 60%)”.

As to `COc1cc(F)ccc1-c1cc(C)n2ncc(C(=O)N[C@@H](C)C3CC3)c2n1` [III-146], the “Percent Gcase Activation, 0.1 μM Test Compound” value is “*** (greater than 20% Gcase activation)” and the “Percent Gcase Activation, 1 μM Test Compound” value is on record as “+++ (Gcase activation greater than 60%)”.

For the compound `COc1cc(-c2cc(C)n3ncc(C(=O)NC(C4CC4)C(F)(F)F)c3n2)ccc1F` (stereo not drawn) [III-147], the “Percent Gcase Activation, 0.1 μM Test Compound” value is given as “*** (greater than 20% Gcase activation)” and the “Percent Gcase Activation, 1 μM Test Compound” value is on record as “+++ (Gcase activation greater than 60%)”.

Regarding `COc1cc(-c2cc(C)n3ncc(C(=O)NC(C)C(F)(F)F)c3n2)ccc1F` (stereo not drawn) [III-148], the “Percent Gcase Activation, 0.1 μM Test Compound” value was “** (Gcase activation in the range of 10% up to 20%)” and the “Percent Gcase Activation, 1 μM Test Compound” value is “+++ (Gcase activation greater than 60%)”.

`COc1cc(F)ccc1-c1cc(C)n2ncc(C(=O)NC(C3CC3)C(F)(F)F)c2n1` (stereo not drawn) [III-149]: the “Percent Gcase Activation, 0.1 μM Test Compound” value is reported as “*** (greater than 20% Gcase activation)” and the “Percent Gcase Activation, 1 μM Test Compound” value is “+++ (Gcase activation greater than 60%)”.

(Values after patent US10934298B2, “Substituted pyrazolo[1,5-a]pyrimidines for the treatment of medical disorders” (BIAL—BioTech Investments, Inc., priority 2016, dated 2021).)
